Tests used:
[1] = DRUGMATRIX: Sodium/nucleoside co-transporter radioligand binding (ligand: nitrobenzylthioinosine); type: cell membranes, Cavia porcellus, Dunkin-Hartley, Cerebral cortex, Membrane; details: Not Active = under 50% inhibition at 10 µM
[2] = biological target: T1, C-C chemokine receptor type 4 (Homo sapiens, UniProt P51679); type: cell membranes, Membrane; details: chem-1; note: in other assays of this panel Not Active means under 50% inhibition at 10 µM
T1 sequence (P51679 whole entry): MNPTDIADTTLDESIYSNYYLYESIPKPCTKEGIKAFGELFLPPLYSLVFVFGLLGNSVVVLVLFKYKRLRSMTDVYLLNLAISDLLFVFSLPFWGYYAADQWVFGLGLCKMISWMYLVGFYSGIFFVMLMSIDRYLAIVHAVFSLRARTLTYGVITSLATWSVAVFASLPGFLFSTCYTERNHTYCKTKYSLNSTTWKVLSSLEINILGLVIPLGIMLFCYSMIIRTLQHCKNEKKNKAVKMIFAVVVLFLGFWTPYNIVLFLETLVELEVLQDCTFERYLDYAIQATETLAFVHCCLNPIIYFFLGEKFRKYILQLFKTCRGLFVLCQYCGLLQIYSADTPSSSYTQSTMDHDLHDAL

Insulin receptor = Insulin receptor (Rattus norvegicus, UniProt P15127); type: cell membranes, Wistar, Liver, Membrane; note: in other assays of this panel Not Active means under 50% inhibition at 10 µM
Chain of Insulin receptor (P15127 27-759 limits assumed): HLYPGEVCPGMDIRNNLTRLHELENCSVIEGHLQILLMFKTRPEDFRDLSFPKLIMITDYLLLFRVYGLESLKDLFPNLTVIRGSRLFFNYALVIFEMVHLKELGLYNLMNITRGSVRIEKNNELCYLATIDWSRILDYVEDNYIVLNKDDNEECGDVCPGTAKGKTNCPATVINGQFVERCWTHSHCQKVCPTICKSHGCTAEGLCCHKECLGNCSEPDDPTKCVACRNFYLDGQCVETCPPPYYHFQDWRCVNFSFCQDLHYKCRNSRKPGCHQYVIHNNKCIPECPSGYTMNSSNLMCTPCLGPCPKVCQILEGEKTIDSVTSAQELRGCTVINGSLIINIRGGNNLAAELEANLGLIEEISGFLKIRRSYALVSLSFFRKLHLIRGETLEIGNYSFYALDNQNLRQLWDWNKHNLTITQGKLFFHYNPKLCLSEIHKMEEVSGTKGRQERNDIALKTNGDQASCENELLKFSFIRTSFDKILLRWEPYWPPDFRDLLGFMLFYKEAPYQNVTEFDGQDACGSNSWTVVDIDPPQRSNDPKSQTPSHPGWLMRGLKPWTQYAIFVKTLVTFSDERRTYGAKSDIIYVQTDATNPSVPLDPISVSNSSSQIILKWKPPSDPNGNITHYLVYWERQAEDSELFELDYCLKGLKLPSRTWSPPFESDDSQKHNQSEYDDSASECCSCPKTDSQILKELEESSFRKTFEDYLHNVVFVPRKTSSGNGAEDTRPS
Chain of Insulin receptor (P15127 764-1383 limits assumed): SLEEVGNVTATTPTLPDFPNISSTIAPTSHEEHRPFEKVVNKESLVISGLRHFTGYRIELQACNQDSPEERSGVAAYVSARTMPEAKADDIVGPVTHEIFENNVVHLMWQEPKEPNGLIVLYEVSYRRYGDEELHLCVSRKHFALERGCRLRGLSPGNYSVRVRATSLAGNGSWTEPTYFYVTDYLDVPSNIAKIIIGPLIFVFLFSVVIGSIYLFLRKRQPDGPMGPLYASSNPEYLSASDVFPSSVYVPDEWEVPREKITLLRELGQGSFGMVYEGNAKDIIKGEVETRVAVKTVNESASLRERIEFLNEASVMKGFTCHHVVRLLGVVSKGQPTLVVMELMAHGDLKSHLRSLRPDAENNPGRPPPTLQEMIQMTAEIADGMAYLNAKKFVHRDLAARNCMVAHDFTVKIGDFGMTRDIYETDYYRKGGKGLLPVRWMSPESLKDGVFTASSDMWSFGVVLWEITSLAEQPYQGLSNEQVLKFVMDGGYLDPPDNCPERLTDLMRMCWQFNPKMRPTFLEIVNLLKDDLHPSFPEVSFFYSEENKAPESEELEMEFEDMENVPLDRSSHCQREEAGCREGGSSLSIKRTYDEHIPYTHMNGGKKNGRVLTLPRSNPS

[3] = biological target: Platelet-activating factor receptor (Homo sapiens, UniProt P25105); type: tissue-based; note: in other assays of this panel Not Active means under 50% inhibition at 10 µM
Chain of Platelet-activating factor receptor (P25105 whole entry): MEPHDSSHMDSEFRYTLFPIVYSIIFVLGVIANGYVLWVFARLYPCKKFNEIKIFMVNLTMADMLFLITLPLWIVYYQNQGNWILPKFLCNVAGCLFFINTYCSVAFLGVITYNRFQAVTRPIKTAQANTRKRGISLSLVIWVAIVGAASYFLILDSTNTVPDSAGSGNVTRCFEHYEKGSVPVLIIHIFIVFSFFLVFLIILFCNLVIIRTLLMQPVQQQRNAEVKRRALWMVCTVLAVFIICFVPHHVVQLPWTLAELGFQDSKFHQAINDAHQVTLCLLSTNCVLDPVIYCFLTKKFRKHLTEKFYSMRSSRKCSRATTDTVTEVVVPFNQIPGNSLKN

[4] = DRUGMATRIX: Platelet-Derived Growth Factor (PDGF) radioligand binding (ligand: [125I] PDGF); type: cell-based; details: nih3t3; Not Active = under 50% inhibition at 10 µM
[5] = DRUGMATRIX: Potassium Channel [KATP] radioligand binding (ligand: [3H] Glyburide); type: cell membranes, Membrane; details: hit-t15; Not Active = under 50% inhibition at 10 µM
[6] = biological target: Matrix metalloproteinase-9 (Homo sapiens, UniProt P14780); test: biochemical; type: cell-based;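 note: inhibition of isolated MMP-9 enzyme activity toward a synthetic peptide substrate, from the DrugMatrix protease screening panel; in other assays of this panel Not Active means under 50% inhibition at 10 µM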
Chain of Matrix metalloproteinase-9 (P14780 whole entry): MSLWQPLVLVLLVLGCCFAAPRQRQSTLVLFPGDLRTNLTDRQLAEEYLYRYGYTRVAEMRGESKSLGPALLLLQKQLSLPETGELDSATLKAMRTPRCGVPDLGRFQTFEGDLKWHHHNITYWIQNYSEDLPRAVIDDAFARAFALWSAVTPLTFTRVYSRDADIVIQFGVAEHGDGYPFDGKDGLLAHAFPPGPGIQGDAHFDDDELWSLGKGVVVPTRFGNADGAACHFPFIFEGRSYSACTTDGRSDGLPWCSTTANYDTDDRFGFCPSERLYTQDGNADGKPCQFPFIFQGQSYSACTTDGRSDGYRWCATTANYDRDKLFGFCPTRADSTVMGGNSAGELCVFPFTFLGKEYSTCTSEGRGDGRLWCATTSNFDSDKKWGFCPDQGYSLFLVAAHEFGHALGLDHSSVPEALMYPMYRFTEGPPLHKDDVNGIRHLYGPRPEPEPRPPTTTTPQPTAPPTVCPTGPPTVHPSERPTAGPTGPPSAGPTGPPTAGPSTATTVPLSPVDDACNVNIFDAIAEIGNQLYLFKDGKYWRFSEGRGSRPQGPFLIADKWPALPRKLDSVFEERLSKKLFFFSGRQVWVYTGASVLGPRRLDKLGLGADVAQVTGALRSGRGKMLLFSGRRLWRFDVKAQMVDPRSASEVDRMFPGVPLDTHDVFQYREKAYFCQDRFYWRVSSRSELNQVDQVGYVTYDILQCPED

Cytochrome P450 2E1 = Cytochrome P450 2E1 (Homo sapiens, UniProt P05181); details: bti-tn-5b1-4; note: in other assays of this panel Not Active means under 50% inhibition at 10 µM
Chain of Cytochrome P450 2E1 (P05181 whole entry): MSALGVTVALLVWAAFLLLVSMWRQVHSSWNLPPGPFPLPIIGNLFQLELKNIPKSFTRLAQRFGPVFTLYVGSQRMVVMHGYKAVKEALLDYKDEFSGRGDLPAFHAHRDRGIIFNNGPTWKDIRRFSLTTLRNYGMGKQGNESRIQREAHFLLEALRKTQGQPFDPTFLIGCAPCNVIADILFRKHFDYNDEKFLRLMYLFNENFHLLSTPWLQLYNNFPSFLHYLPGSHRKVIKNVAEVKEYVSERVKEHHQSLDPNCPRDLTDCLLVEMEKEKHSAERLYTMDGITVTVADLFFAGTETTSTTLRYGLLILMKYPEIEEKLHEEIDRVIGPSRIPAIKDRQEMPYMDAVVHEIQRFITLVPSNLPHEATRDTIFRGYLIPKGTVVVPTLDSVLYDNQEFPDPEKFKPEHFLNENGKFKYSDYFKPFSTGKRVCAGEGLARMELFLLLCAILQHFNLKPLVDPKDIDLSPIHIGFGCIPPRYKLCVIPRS

Cytochrome P450 3A4 = Cytochrome P450 3A4 (Homo sapiens, UniProt P08684); details: bti-tn-5b1-4; note: in other assays of this panel Not Active means under 50% inhibition at 10 µM
Chain of Cytochrome P450 3A4 (P08684 whole entry): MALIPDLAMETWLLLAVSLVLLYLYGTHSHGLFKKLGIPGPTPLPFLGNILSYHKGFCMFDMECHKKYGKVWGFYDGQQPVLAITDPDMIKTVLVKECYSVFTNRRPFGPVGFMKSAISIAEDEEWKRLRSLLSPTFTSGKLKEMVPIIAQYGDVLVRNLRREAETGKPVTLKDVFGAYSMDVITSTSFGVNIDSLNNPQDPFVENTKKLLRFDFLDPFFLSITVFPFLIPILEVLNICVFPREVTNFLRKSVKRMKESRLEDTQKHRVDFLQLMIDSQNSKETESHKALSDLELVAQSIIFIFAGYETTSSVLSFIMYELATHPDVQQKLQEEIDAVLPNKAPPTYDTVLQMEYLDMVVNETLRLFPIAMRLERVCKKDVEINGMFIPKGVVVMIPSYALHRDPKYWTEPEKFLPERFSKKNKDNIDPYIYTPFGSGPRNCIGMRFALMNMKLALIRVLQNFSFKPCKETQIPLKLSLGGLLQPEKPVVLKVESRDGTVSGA

COC(=O)Nc1nc2ccc(C(=O)c3cccs3)cc2[nH]1 [NOCODAZOLE]
Not Active: IC50 [1] | Ki [1] | IC50 [2] | IC50 (Insulin receptor) | IC50 [3] | IC50 [4] | Ki [4] | IC50 [5] | Ki [5] | IC50 [6] | IC50 (Cytochrome P450 2E1) | Ki (Cytochrome P450 2E1) | IC50 (Cytochrome P450 3A4) | Ki (Cytochrome P450 3A4)

AURANOFIN
Not Active: IC50 [1] | Ki [1] | IC50 [2] | Ki [2] | IC50 (Insulin receptor) | Ki (Insulin receptor) | IC50 [3] | Ki [3] | IC50 [4] | Ki [4] | IC50 [5] | Ki [5] | IC50 [6] | Ki [6] | IC50 (Cytochrome P450 2E1) | Ki (Cytochrome P450 2E1) | IC50 (Cytochrome P450 3A4) | Ki (Cytochrome P450 3A4)

Cc1nnc2n1-c1ccc(Cl)cc1C(c1ccccc1)=NC2 [ALPRAZOLAM]
Not Active: IC50 [1] | Ki [1] | IC50 [2] | IC50 (Insulin receptor) | IC50 [3] | IC50 [4] | Ki [4] | IC50 [5] | Ki [5] | IC50 [6] | IC50 (Cytochrome P450 2E1) | Ki (Cytochrome P450 2E1) | IC50 (Cytochrome P450 3A4) | Ki (Cytochrome P450 3A4)

CC(=O)[C@H]1[C@H](C#N)C[C@H]2[C@@H]3CC=C4C[C@@H](O)CC[C@]4(C)[C@H]3CC[C@@]21C [PREGNENOLONE CARBONITRILE]
Not Active: IC50 [1] | Ki [1] | IC50 [2] | IC50 (Insulin receptor) | IC50 [3] | IC50 [4] | Ki [4] | IC50 [5] | Ki [5] | IC50 [6] | IC50 (Cytochrome P450 2E1) | Ki (Cytochrome P450 2E1) | IC50 (Cytochrome P450 3A4) | Ki (Cytochrome P450 3A4)

C[C@@H]1CC[C@@]2(OC1)O[C@H]1[C@@H](O)[C@H]3[C@@H]4CC[C@H]5C[C@@H](O[C@@H]6O[C@H](CO)[C@H](O[C@@H]7O[C@H](CO)C(O)[C@H](O[C@@H]8OC[C@@H](O)[C@H](O)[C@H]8O)[C@H]7O[C@@H]7O[C@H](CO)[C@H](O)[C@H](O[C@@H]8O[C@H](CO)[C@@H](O)[C@H](O)[C@H]8O)[C@H]7O)[C@H](O)[C@H]6O)[C@H](O)C[C@]5(C)[C@H]4CC[C@]3(C)[C@H]1[C@@H]2C (some centres undefined) [DIGITONIN]
Not Active: IC50 [1] | Ki [1] | IC50 [2] | IC50 (Insulin receptor) | IC50 [3] | IC50 [4] | Ki [4] | IC50 [5] | Ki [5] | IC50 [6] | IC50 (Cytochrome P450 2E1) | Ki (Cytochrome P450 2E1) | IC50 (Cytochrome P450 3A4) | Ki (Cytochrome P450 3A4)

— ChEMBL document CHEMBL1909046, “DrugMatrix in vitro pharmacology data”
